The values that follow come from patent US10308659B2, “Pyridine derivatives” (Hoffmann-La Roche Inc., priority 2013, dated 2019).

The structures appear in SMILES notation. pEC50: −log10 of the molar value. Like-named read-outs stand apart in the source and are kept apart here. A value given as a limit tells only on which side of the number the result lay.

The target of assay [1] is human CB2 receptors (Homo sapiens (Human), UniProt P34972). Briefly: cAMP assay, CHO cells expressing human CB2 receptors. Format: cell-based. How it is done: (§1) CHO cells expressing human CB1 or CB2 receptors are seeded 17-24 hours prior to the experiment 50.000 cells per well in a black 96 well plate with flat clear bottom (Corning Costar #3904) in DMEM (Invitrogen No. 31331), 1×HT supplement, with 10% fetal calf serum and incubated at 5% CO2 and 37° C. in a humidified incubator. The growth medium was exchanged with Krebs Ringer Bicarbonate buffer with 1 mM IBMX and incubated at 30° C. for 30 min. Compounds were added to a final assay volume of 100 μl and incubated for 30 min at 30° C. […] The time-resolved energy transfer is measured by a TRF reader (Evotec Technologies GmbH), equipped with a ND:YAG laser as excitation source. The plate is measured twice with the excitation at 355 nm and at the emission with a delay of 100 ns and a gate of 100 ns, total exposure time 10 s at 730 (bandwidth30 nm) or 645 nm (bandwidth 75 nm), respectively. The FRET signal is calculated as follows: FRET=T730-Alexa730-P(T645-B645) with P=Ru730-B730/Ru645-B645, where T730 is the test well measured at 730 nM, T645 is the test well measured at 645 nm, B730 and B645 are the buffer controls at 730 nm and 645 nm, respectively. cAMP content is determined from the function of a standard curve spanning from 10 μM to 0.13 nM cAMP.
Chain of human CB2 receptors (P34972 whole entry): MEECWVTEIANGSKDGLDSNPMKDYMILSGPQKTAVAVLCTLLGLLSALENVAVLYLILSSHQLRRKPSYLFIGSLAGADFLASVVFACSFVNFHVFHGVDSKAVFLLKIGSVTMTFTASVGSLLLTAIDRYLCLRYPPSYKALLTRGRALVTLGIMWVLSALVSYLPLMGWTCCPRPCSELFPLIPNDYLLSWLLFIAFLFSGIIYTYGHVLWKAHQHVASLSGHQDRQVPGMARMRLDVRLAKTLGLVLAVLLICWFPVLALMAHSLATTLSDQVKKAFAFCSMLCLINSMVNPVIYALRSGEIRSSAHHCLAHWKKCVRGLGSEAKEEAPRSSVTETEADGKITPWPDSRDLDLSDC
(§2) EC50 values were determined using Activity Base analysis (ID Business Solution, Limited).

Assay [2] addresses human CB1 receptors (Homo sapiens (Human), UniProt P21554). The experiment in a line: cAMP assay, CHO cells expressing human CB1 receptors. In kind it is cell-based. How it is done:
as §1, §2

Setting [3] is: functional cAMP assay, CHO cells expressing human CB2, read-out: EC50 CB2 human.
The mark [4] stands for this setting: functional cAMP assay, CHO cells expressing human CB1, read-out: EC50 CB1 human.

Chain of human CB1 receptors (P21554 whole entry): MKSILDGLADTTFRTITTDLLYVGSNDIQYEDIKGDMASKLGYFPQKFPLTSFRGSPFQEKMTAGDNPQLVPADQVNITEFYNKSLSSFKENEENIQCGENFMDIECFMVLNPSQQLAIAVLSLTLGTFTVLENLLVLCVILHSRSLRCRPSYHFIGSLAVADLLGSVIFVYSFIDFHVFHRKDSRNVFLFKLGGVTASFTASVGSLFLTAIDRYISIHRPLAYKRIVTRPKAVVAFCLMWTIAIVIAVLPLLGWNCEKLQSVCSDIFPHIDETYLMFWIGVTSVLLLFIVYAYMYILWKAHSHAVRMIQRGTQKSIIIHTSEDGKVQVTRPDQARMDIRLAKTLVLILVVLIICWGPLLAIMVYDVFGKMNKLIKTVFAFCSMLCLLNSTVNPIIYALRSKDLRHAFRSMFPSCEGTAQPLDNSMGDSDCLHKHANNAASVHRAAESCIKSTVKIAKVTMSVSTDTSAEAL

`CC(C)(C)c1nc(-c2cc(OCCN3CCCCC3)c(C3CC3)cn2)no1` [Example 95, 5-tert-butyl-3-[5-cyclopropyl-4-(2-piperidin-1-ylethoxy)pyridin-2-yl]-1,2,4-oxadiazole]: the figures for the negative-log EC50 (pEC50) in assay [1] (setting [3]) and in assay [2] (setting [4]) were 7.58 and < 5.00, respectively.

In the case of `c1ccc(-c2noc(-c3cc(OCC4CC4)c(C4CC4)cn3)n2)cc1` [Example 2, 5-[5-cyclopropyl-4-(cyclopropylmethoxy)pyridin-2-yl]-3-phenyl-1,2,4-oxadiazole], the pEC50 in assay [1] (setting [3]) is 7.64; in assay [2] (setting [4]), < 5.00.

`CC(C)(C)c1nc(-c2cc(OCCF)c(C3CC3)cn2)no1` [Example 116, 5-tert-butyl-3-[5-cyclopropyl-4-(2-fluoroethoxy)pyridin-2-yl]-1,2,4-oxadiazole]: the pEC50 was 7.81 in assay [1] (setting [3]) and < 5.00 in assay [2] (setting [4]).

On to `CC(C)(C)c1nc(-c2cc(OCc3ccc(F)cn3)c(C3CC3)cn2)no1` [Example 118, 5-tert-butyl-3-[5-cyclopropyl-4-[(5-fluoropyridin-2-yl)methoxy]pyridin-2-yl]-1,2,4-oxadiazole], for which the pEC50 was 7.46 in assay [1] (setting [3]) and < 5.00 in assay [2] (setting [4]).

Consider `COC(C)CCOc1cc(-c2noc(C(C)(C)C)n2)ncc1C1CC1` (stereo not drawn) [Example 89, 5-tert-butyl-3-[5-cyclopropyl-4-(3-methoxybutoxy)pyridin-2-yl]-1,2,4-oxadiazole], for which the pEC50 in assay [1] (setting [3]) is 7.79; in assay [2] (setting [4]) it was < 5.00.

On to `Cc1noc(-c2cc(OCC3CC3)c(C3CC3)cn2)n1` [Example 1, 5-[5-cyclopropyl-4-(cyclopropylmethoxy)pyridin-2-yl]-3-methyl-1,2,4-oxadiazole], for which the pEC50 in assay [1] (setting [3]) is 7.59; in assay [2] (setting [4]) it was < 5.00.

For `CC(C)(C)c1noc(-c2cc(OCC(F)F)c(C3CC3)cn2)n1` [Example 123, 3-tert-butyl-5-(5-cyclopropyl-4-(2,2-difluoroethoxy)pyridin-2-yl)-1,2,4-oxadiazole], the pEC50 in assay [1] (setting [3]) was 8.70; in assay [2] (setting [4]), < 5.00.

In the case of `CC(C)(C)c1c[nH]c(-c2cc(OCC(F)(F)F)c(N3CC(F)(F)C3)cn2)n1` [Example 64, 2-(5-tert-butyl-1H-imidazol-2-yl)-5-(3,3-difluoroazetidin-1-yl)-4-(2,2,2-trifluoroethoxy)pyridine], the pEC50 in assay [1] (setting [3]) is 7.06; in assay [2] (setting [4]), < 5.00.

As to `CC(C)(C)c1nc(-c2cc(OCC3CC3)c(N3CC(F)(F)C3)cn2)no1` [Example 32, 5-tert-butyl-3-[4-(cyclopropylmethoxy)-5-(3,3-difluoroazetidin-1-yl)pyridin-2-yl]-1,2,4-oxadiazole], the pEC50 in assay [1] (setting [3]) is 8.07; in assay [2] (setting [4]), < 5.00.

For `CC(C)(C)c1nc(-c2cc(S(=O)(=O)C3CC3)c(C3CC3)cn2)no1` [Example 80, 5-tert-butyl-3-(5-cyclopropyl-4-cyclopropylsulfonylpyridin-2-yl)-1,2,4-oxadiazole], the results for the pEC50 in assay [1] (setting [3]) and in assay [2] (setting [4]) were 7.32 and < 5.00, respectively.

Turning to `CCN1CCCC(Oc2cc(-c3noc(C(C)(C)C)n3)ncc2C2CC2)C1` (stereo not drawn) [Example 100, 5-tert-butyl-3-[5-cyclopropyl-4-(1-ethylpiperidin-3-yl)oxypyridin-2-yl]-1,2,4-oxadiazole], the negative-log EC50 (pEC50) was 6.29 in assay [1] (setting [3]) and < 5.00 in assay [2] (setting [4]).

Consider `CCN1CCC(Oc2cc(-c3noc(C(C)(C)C)n3)ncc2C2CC2)C1` (stereo not drawn) [Example 92, 5-tert-butyl-3-[5-cyclopropyl-4-(1-ethylpyrrolidin-3-yl)oxypyridin-2-yl]-1,2,4-oxadiazole], for which the pEC50 in assay [1] (setting [3]) is 7.12; in assay [2] (setting [4]), 6.11.

`CC(C)c1noc(-c2cc(OCC(F)(F)F)c(C3CC3)cn2)n1` [Example 42, 5-[5-cyclopropyl-4-(2,2,2-trifluoroethoxy)pyridin-2-yl]-3-propan-2-yl-1,2,4-oxadiazole]: the pEC50 in assay [1] (setting [3]) is 8.64; in assay [2] (setting [4]) it was < 5.00.

With `CC(C)(C)c1nc(-c2cc(OC3CCCNC3)c(C3CC3)cn2)no1` (stereo not drawn) [Example 104, 5-tert-butyl-3-(5-cyclopropyl-4-piperidin-3-yloxypyridin-2-yl)-1,2,4-oxadiazole], the pEC50 in assay [1] (setting [3]) was 7.16; in assay [2] (setting [4]), < 5.00.

Turning to `CC(C)(C)[C@H]1COC(c2cc(OCC3CC3)c(C3CC3)cn2)=N1` [Example 20, (4S)-4-tert-butyl-2-[5-cyclopropyl-4-(cyclopropylmethoxy)pyridin-2-yl]-4,5-dihydro-1,3-oxazole], the pEC50 in assay [1] (setting [3]) was 8.43; in assay [2] (setting [4]), < 5.00.

On to `COCC(C)Oc1cc(-c2noc(C(C)(C)C)n2)ncc1C1CC1` (stereo not drawn) [Example 87, 5-tert-butyl-3-[5-cyclopropyl-4-(1-methoxypropan-2-yloxy)pyridin-2-yl]-1,2,4-oxadiazole], for which the figures for the pEC50 in assay [1] (setting [3]) and in assay [2] (setting [4]) were 6.95 and < 5.00, respectively.

For `CCC1COC(c2cc(OCC3CC3)c(C3CC3)cn2)=N1` (stereo not drawn) [Example 21, 2-[5-cyclopropyl-4-(cyclopropylmethoxy)pyridin-2-yl]-4-ethyl-4,5-dihydro-1,3-oxazole], the values for the pEC50 in assay [1] (setting [3]) and in assay [2] (setting [4]) were 7.15 and < 5.00, respectively.

For the molecule `CC(C)c1nc(-c2cc(OCC3CC3)c(C3CC3)cn2)no1` [Example 14, 3-[5-cyclopropyl-4-(cyclopropylmethoxy)pyridin-2-yl]-5-propan-2-yl-1,2,4-oxadiazole], the pEC50 is 8.43 in assay [1] (setting [3]) and < 5.00 in assay [2] (setting [4]).

As for `OCc1nc(-c2cc(OCC3CC3)c(C3CC3)cn2)no1` [Example 18, [3-[5-cyclopropyl-4-(cyclopropylmethoxy)pyridin-2-yl]-1,2,4-oxadiazol-5-yl]methanol], the pEC50 in assay [1] (setting [3]) was 6.96; in assay [2] (setting [4]), < 5.00.

For `CC(C)(C)c1nc(-c2cc(OCC(F)(F)F)c(S(C)(=O)=O)cn2)no1` [Example 67, 5-tert-butyl-3-[5-methylsulfonyl-4-(2,2,2-trifluoroethoxy)pyridin-2-yl]-1,2,4-oxadiazole], the pEC50 in assay [1] (setting [3]) is 6.36; in assay [2] (setting [4]), < 5.00.

As for `CC(C)CC1(C)N=C(c2cc(OCC(F)(F)F)c(C3CC3)cn2)NC1=O` (stereo not drawn) [Example 69, 2-[5-cyclopropyl-4-(2,2,2-trifluoroethoxy)pyridin-2-yl]-4-methyl-4-(2-methylpropyl)-1H-imidazol-5-one], the results for the pEC50 in assay [1] (setting [3]) and in assay [2] (setting [4]) were 8.05 and < 5.00, respectively.

Consider `CC(C)(C)c1nc(-c2cc(OC3CCCOC3)c(C3CC3)cn2)no1` (stereo not drawn) [Example 88, 5-tert-butyl-3-[5-cyclopropyl-4-(oxan-3-yloxy)pyridin-2-yl]-1,2,4-oxadiazole], for which the values for the pEC50 in assay [1] (setting [3]) and in assay [2] (setting [4]) were 7.28 and < 5.00, respectively.

For the molecule `CC(C)(C)c1nc(-c2cc(OCC(F)F)c(C3CC3)cn2)no1` [Example 115, 5-tert-butyl-3-[5-cyclopropyl-4-(2,2-difluoroethoxy)pyridin-2-yl]-1,2,4-oxadiazole], the pEC50 in assay [1] (setting [3]) was 8.70; in assay [2] (setting [4]), < 5.00.

With `CC(C)(C)c1nc(-c2cc(OCC(F)(F)F)c(C3CC3)cn2)no1` [Example 33, 5-tert-butyl-3-[5-cyclopropyl-4-(2,2,2-trifluoroethoxy)pyridin-2-yl]-1,2,4-oxadiazole], the pEC50 in assay [1] was 8.16; in assay [2] it was < 5.00.

Turning to `CN1CCC[C@H]1COc1cc(-c2nc(C(C)(C)C)no2)ncc1C1CC1` [Example 122, 3-tert-butyl-5-[5-cyclopropyl-4-[[(2S)-1-methylpyrrolidin-2-yl]methoxy]pyridin-2-yl]-1,2,4-oxadiazole], the negative logarithm of the EC50 (pEC50) in assay [1] (setting [3]) was 6.84; in assay [2] (setting [4]) it was < 5.00.

For the molecule `FC(F)(F)COc1cc(-c2noc(C3CC3)n2)ncc1C1CC1` [Example 72, 5-cyclopropyl-3-[5-cyclopropyl-4-(2,2,2-trifluoroethoxy)pyridin-2-yl]-1,2,4-oxadiazole], the pEC50 was 7.34 in assay [1] (setting [3]) and < 5.00 in assay [2] (setting [4]).

In the case of `COC1CN(c2cc(-c3noc(C(C)(C)C)n3)ncc2C2CC2)C1` [Example 81, 5-tert-butyl-3-[5-cyclopropyl-4-(3-methoxyazetidin-1-yl)pyridin-2-yl]-1,2,4-oxadiazole], the pEC50 in assay [1] (setting [3]) is 7.68; in assay [2] (setting [4]), < 5.00.

With `CC(C)(C)c1nc(-c2cc(N3CCOCC3)c(C3CC3)cn2)no1` [Example 78, 4-[2-(5-tert-butyl-1,2,4-oxadiazol-3-yl)-5-cyclopropylpyridin-4-yl]morpholine], the pEC50 in assay [1] (setting [3]) was 7.37; in assay [2] (setting [4]), < 5.00.

`CC(C)(C)c1nc(-c2cc(OC3CCOCC3)c(C3CC3)c(Cl)n2)no1` [Example 114, 5-tert-butyl-3-[6-chloro-5-cyclopropyl-4-(oxan-4-yloxy)pyridin-2-yl]-1,2,4-oxadiazole]: the figures for the pEC50 in assay [1] (setting [3]) and in assay [2] (setting [4]) were 8.43 and 6.34, respectively.

Regarding `CC(C)(C)c1nc(-c2cc(Oc3cccc(S(C)(=O)=O)c3)c(C3CC3)cn2)no1` [Example 108, 5-tert-butyl-3-[5-cyclopropyl-4-(3-methylsulfonylphenoxy)pyridin-2-yl]-1,2,4-oxadiazole], the pEC50 in assay [1] (setting [3]) was 7.16; in assay [2] (setting [4]), < 5.00.
